Assay results reported in patent publication US9102919B2, “WNT pathway stimulation in reprogramming somatic cells with nuclear reprogramming factors” (Whitehead Institute for Biomedical Research, priority 2007, dated 2015).

Experiments:
[1] = target: GSK3; conditions: cited from earlier work
[2] = test system: 26 other kinases; conditions: cited from earlier work
[3] = test system: MEFs overexpressing Oct4/Sox2/Klf4/c-Myc; assay: G418-resistant colony formation in four-factor MEFs; format: cell-based, mouse
Description: (§1) Cell culture, viral infections, induction of gene expression. Cells were cultured in 15% FBS, DMEM-KO, Penn/Step, Glutamine, Nonessential amino acids, β-ME, and LIF. Mouse embryo fibroblasts (MEFs) with an Oct4-IRES-eGFP construct (Meissner, A., et al., Nature Biotechnology, Direct reprogramming of genetically unmodified fibroblasts into pluripotent stem cells. Published online: 27 Aug. 2007|doi:10.1038/nbt1335) inserted into the endogenous Oct4 locus were infected with lentiviral vectors driving the doxycycline-inducible expression of Oct4, Sox2, Klf4 and c-Myc or only Oct4, Sox2, and Klf4. The vectors were based on the FUGW lentiviral vector backbone (Lois C, et al., Science 2002; 295: 868-872.), modified to include a tet-inducible promoter. Two days following infection cells were split and induced with doxycycline in the presence or absence of Wnt3a conditioned media (used in a 1:1 dilution with normal ES media with 2×LIF). These cells were monitored for GFP expression by flow cytometry at day 13 and again at day 20. In parallel, MEFs with doxycycline-inducible Oct4 expressed from the collagen locus and Oct4-IRES-(neo resistance) inserted into the endogenous Oct4 locus were infected with lentiviruses driving the overexpression of either Sox2, Klf4 and c-Myc or Sox2 and Klf4. Again, two days following infection cells were split and induced with doxycycline in the presence or absence of Wnt3a conditioned media. […] Following at least one week of G418 selection, resistant colonies were examined and counted.
Conditioned medium. Wnt 3a conditioned media (CM) was collected from mouse L cells that had been transfected with Wnt3a cDNA (Shibamoto et al. 1998). These cells are available through ATCC(CRL-2647) along with the untransfected parent cell line (CRL-2648) to use for control conditioned medium. […]
We hypothesized that stimulation of the stimulation of the Wnt pathway using soluble factors could modulate the efficiency of inducing pluripotency in somatic cells. […] GFP expression was analyzed by FACS on day 13 and 20. […] Surviving colonies were counted on day 20. […]

[4] = test system: MEFs over-expressing Oct4/Sox2/Klf4; assay: G418-resistant colony formation in three-factor (Myc[-]) MEFs; format: cell-based, mouse; conditions: 4 μM; three factors in Wnt3a-CM; G418 day 15; scored day 28
Description: as §1, with “20.” for “20. In parallel, MEFs with doxycycline-inducible Oct4 expressed from the collagen locus and Oct4-IRES-(neo resistance) inserted into the endogenous Oct4 locus were infected with lentiviruses driving the overexpression of either Sox2, Klf4 and c-Myc or Sox2 and Klf4. Again, two days following infection cells were split and induced with doxycycline in the presence or absence of Wnt3a conditioned media.”, “counted. […]” for “counted.”
We hypothesized that stimulation of the stimulation of the Wnt pathway using soluble factors could modulate the efficiency of inducing pluripotency in somatic cells. […] GFP expression was analyzed by FACS on day 13 and 20. […]

[5] = target: Cdk-1/cyclin B (Homo sapiens, UniProt P06493); conditions: at >100 μM; cited from earlier work
Cdk-1/cyclin B, sequence (P06493 whole entry, species assumed): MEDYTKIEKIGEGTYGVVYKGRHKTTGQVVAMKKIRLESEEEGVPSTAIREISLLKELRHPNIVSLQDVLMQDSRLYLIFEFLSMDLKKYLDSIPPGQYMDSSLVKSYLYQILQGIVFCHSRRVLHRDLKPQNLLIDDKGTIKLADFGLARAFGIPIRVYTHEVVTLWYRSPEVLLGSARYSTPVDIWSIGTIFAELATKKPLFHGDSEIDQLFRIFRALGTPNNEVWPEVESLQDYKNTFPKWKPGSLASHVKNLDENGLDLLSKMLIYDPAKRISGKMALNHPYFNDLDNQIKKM
Cdk-1/cyclin B, sequence (P14635 whole entry partner, species assumed): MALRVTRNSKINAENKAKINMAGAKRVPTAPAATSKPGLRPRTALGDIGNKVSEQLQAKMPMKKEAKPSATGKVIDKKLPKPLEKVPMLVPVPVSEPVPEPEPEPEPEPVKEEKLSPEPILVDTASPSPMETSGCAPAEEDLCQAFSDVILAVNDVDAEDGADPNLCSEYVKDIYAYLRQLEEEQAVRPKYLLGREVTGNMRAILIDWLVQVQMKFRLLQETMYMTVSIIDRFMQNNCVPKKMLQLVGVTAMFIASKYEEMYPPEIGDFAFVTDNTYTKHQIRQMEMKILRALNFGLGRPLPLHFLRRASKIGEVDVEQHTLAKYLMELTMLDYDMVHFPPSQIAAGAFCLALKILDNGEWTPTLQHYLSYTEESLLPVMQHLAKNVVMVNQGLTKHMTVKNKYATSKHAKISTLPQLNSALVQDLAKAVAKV

[6] = test system: CK-II; conditions: at >100 μM; cited from earlier work
[7] = test system: PKA; conditions: at >100 μM; cited from earlier work
[8] = test system: PKC; conditions: at >100 μM; cited from earlier work
[9] = test system: histone deacetylase; conditions: cited from earlier work

In the case of COc1ccc(CNC(=O)Nc2ncc([N+](=O)[O-])s2)cc1 [AR-A014418, N-(4-Methoxybenzyl)-N′-(5-nitro-1,3-thiazol-2-yl)urea], the Ki [1] is listed as […] and the “inhibition of other kinases” value [2] is listed as “does not significantly inhibit”.
With O=C1[C@H](Cc2ccc(O)cc2)N2C(=O)CCN(C(=O)NCc3ccccc3)[C@H]2CN1Cc1cccc2ccccc12 [ICG-001] the “effect on number of G418 colonies in c-Myc transduced cells” value ([3]; 4 μM, four factors in Wnt3a-CM, selection day 10, assessed day 20) was “only a subtle effect”, the iPS colonies ([3]; 25 μM, four factors (data not shown)) was “multiple Oct4/Sox2/Klf4/c-Myc iPS colonies were observed” and the iPS colony numbers ([3]; higher doses than 4 μM, four factors (data not shown)) was “further reduced”. For the same compound, the “effect on Wnt3a-CM promoted Myc[-] iPS formation” value [4] was “strongly inhibited”.
In the case of Cn1sc(=O)n(Cc2ccccc2)c1=O [TDZD-8, 4-Benzyl-2-methyl-1,2,4-thiadiazolidine-3,5-dione], the inhibition [5] is given as “does not inhibit”, the inhibition [6] is given as “does not inhibit” and the inhibition [7] is given as “does not inhibit”. For the same compound, the inhibition [8] was “does not inhibit”.
For CC(/C=C/C(=O)NO)=C\[C@@H](C)C(=O)c1ccc(N(C)C)cc1 [Trichostatin A, [R-(E,E)]-7-[4-(Dimethylamino)phenyl]-N-hydroxy-4,6-dimethyl-7-oxo-2,4-heptadienamide], the “inhibition of histone deacetylase” value [9] is listed as “inhibits histone deacetylase at nanomolar concentrations”.
